Laboratory results as given in ChEMBL document CHEMBL5584362, “Sucurchalasins A and B, Sulfur-Containing Heterodimers of a Cytochalasan and a Macrolide from the Endophytic Fungus Aspergillus spelaeus GDGJ-286” (J Nat Prod, 2024).
In brackets after ≈: the same amount, converted by molar mass. Activity calls are given as the source filed them. The rule behind the calls is not given here.

Key:
[1] = test system: Enterococcus faecalis; assay: Antibacterial activity against Enterococcus faecalis measured after 20 to 45 mins by broth microdilution method; assay type: functional; conditions: time 20-45 min
[2] = test system: HepG2; assay: Cytotoxicity against human HepG2 cells by MTT assay; assay type: functional, cell-based
[3] = test system: SK-OV-3; assay: Cytotoxicity against human SK-OV-3 cells by MTT assay; assay type: functional, cell-based
[4] = test system: HeLa; assay: Cytotoxicity against human HeLa cells by MTT assay; assay type: functional, cell-based
[5] = test system: A2780; assay: Cytotoxicity against human A2780 cells by MTT assay; assay type: functional, cell-based
[6] = test system: Escherichia coli; assay: Antibacterial activity against Escherichia coli measured after 20 to 45 mins by broth microdilution method; assay type: functional; conditions: time 20-45 min
[7] = test system: Vibrio parahaemolyticus; assay: Antibacterial activity against Vibrio parahaemolyticus measured after 20 to 45 mins by broth microdilution method; assay type: functional; conditions: time 20-45 min
[8] = test system: Bacillus subtilis; assay: Antibacterial activity against Bacillus subtilis measured after 20 to 45 mins by broth microdilution method; assay type: functional; conditions: time 20-45 min
[9] = test system: Staphylococcus aureus; assay: Antibacterial activity against Staphylococcus aureus measured after 20 to 45 mins by broth microdilution method; assay type: functional; conditions: time 20-45 min
[10] = test system: Shigella dysenteriae; assay: Antibacterial activity against Shigella dysenteriae measured after 20 to 45 mins by broth microdilution method; assay type: functional; conditions: time 20-45 min
[11] = test system: Salmonella typhi; assay: Antibacterial activity against Salmonella typhi measured after 20 to 45 mins by broth microdilution method; assay type: functional, Salmonella enterica subsp. enterica serovar Typhi; conditions: Salmonella enterica; time 20-45 min
[12] = test system: A2780; assay: Induction of apoptosis in human A2780 cells assessed as early apoptotic cells at 1 uM measured after 48 hrs by Annexin V-FITC/PI staining based FACS analysis (reference value: 1.68 to 1.9%); assay type: functional
[13] = test system: A2780; assay: Induction of apoptosis in human A2780 cells assessed as early apoptotic cells at 3 uM measured after 48 hrs by Annexin V-FITC/PI staining based FACS analysis (reference value: 1.68 to 1.9%); assay type: functional
[14] = test system: A2780; assay: Induction of apoptosis in human A2780 cells assessed as increase in early apoptotic cells measured after 48 hrs by Annexin V-FITC/PI staining based FACS analysis; assay type: functional, cell-based; conditions: dose 1-9 µM
[15] = test system: A2780; assay: Induction of apoptosis in human A2780 cells assessed as necrotic cells at 3 uM measured after 48 hrs by Annexin V-FITC/PI staining based FACS analysis (reference value: 1.34 to 3.3%); assay type: functional
[16] = test system: A2780; assay: Induction of apoptosis in human A2780 cells assessed as necrotic cells at 9 uM measured after 48 hrs by Annexin V-FITC/PI staining based FACS analysis (reference value: 1.34 to 3.3%); assay type: functional
[17] = test system: A2780; assay: Induction of apoptosis in human A2780 cells assessed as viable cells at 1 uM measured after 48 hrs by Annexin V-FITC/PI staining based FACS analysis (reference value: 92.6 to 92.8%); assay type: functional; conditions: read-out: Activity
[18] = test system: Vibrio parahaemolyticus; assay: Antibacterial activity against Vibrio parahaemolyticus at 25 ug/ml measured after 20 to 45 mins by broth microdilution method; assay type: functional, organism-based; conditions: dose 25.0 µg/ml, time 20-45 min
[19] = test system: A2780; assay: Induction of apoptosis in human A2780 cells assessed as late apoptotic cells at 9 uM measured after 48 hrs by Annexin V-FITC/PI staining based FACS analysis (reference value: 2.32 to 2.4%); assay type: functional
[20] = test system: Escherichia coli; assay: Antibacterial activity against Escherichia coli at 25 ug/ml measured after 20 to 45 mins by broth microdilution method; assay type: functional, organism-based; conditions: dose 25.0 µg/ml, time 20-45 min
[21] = test system: A2780; assay: Induction of apoptosis in human A2780 cells assessed as viable cells at 9 uM measured after 48 hrs by Annexin V-FITC/PI staining based FACS analysis (reference value: 92.6 to 92.8%); assay type: functional; conditions: read-out: Activity
[22] = test system: A2780; assay: Induction of apoptosis in human A2780 cells assessed as necrotic cells at 1 uM measured after 48 hrs by Annexin V-FITC/PI staining based FACS analysis (reference value: 1.34 to 3.3%); assay type: functional
[23] = test system: A2780; assay: Induction of apoptosis in human A2780 cells assessed as chromatin condensation at 1 to 9 uM measured after 48 hrs by Hoechst 33258 staining based assay; assay type: functional, cell-based; conditions: dose 1-9 µM
[24] = test system: A2780; assay: Induction of apoptosis in human A2780 cells assessed as early apoptotic cells at 9 uM measured after 48 hrs by Annexin V-FITC/PI staining based FACS analysis (reference value: 1.68 to 1.9%); assay type: functional
[25] = test system: Staphylococcus aureus; assay: Antibacterial activity against Staphylococcus aureus at 25 ug/ml measured after 20 to 45 mins by broth microdilution method; assay type: functional, organism-based; conditions: dose 25.0 µg/ml, time 20-45 min
[26] = test system: A2780; assay: Induction of apoptosis in human A2780 cells assessed as late apoptotic cells at 3 uM measured after 48 hrs by Annexin V-FITC/PI staining based FACS analysis (reference value: 2.32 to 2.4%); assay type: functional
[27] = test system: A2780; assay: Induction of apoptosis in human A2780 cells assessed as chromatin fragmentation at 1 to 9 uM measured after 48 hrs by Hoechst 33258 staining based assay; assay type: functional, cell-based; conditions: dose 1-9 µM
[28] = test system: Salmonella typhi; assay: Antibacterial activity against Salmonella typhi at 25 ug/ml measured after 20 to 45 mins by broth microdilution method; assay type: functional, organism-based; conditions: Salmonella enterica subsp. enterica serovar Typhi; dose 25.0 µg/ml, time 20-45 min
[29] = test system: A2780; assay: Induction of apoptosis in human A2780 cells assessed as viable cells at 3 uM measured after 48 hrs by Annexin V-FITC/PI staining based FACS analysis (reference value: 92.6 to 92.8%); assay type: functional; conditions: read-out: Activity
[30] = test system: A2780; assay: Induction of apoptosis in human A2780 cells assessed as increase in late apoptotic cells measured after 48 hrs by Annexin V-FITC/PI staining based FACS analysis; assay type: functional, cell-based; conditions: dose 1-9 µM
[31] = test system: A2780; assay: Induction of apoptosis in human A2780 cells assessed as late apoptotic cells at 1 uM measured after 48 hrs by Annexin V-FITC/PI staining based FACS analysis (reference value: 2.32 to 2.4%); assay type: functional
[32] = test system: Shigella dysenteriae; assay: Antibacterial activity against Shigella dysenteriae at 25 ug/ml measured after 20 to 45 mins by broth microdilution method; assay type: functional, organism-based; conditions: dose 25.0 µg/ml, time 20-45 min

Structure (SMILES) | MIC [1] [µg/mL] | IC50 [2] [µM] | IC50 [3] [µM] | IC50 [4] [µM] | IC50 [5] [µM] | MIC [6] [µg/mL] | MIC [7] [µg/mL] | MIC [8] [µg/mL] | MIC [9] [µg/mL] | MIC [10] [µg/mL] | MIC [11] [µg/mL] | Activity [25] | Activity [28] | other results
CO[C@H]1CCC[C@H](C)OC(=O)Cc2cc(O)cc(O)c2C(=O)C1 [11ALPHA-METHOXYCURVULARIN] | > 25 | > 20 | > 20 | > 20 | > 20 | > 25 | > 25 | > 25 | > 25 | > 25 | > 25 | – | – | –
C[C@H]1CCC(=O)CCC(=O)c2c(O)cc(O)cc2CC(=O)O1 | > 25 | > 20 | > 20 | > 20 | > 20 | > 25 | > 25 | > 25 | > 25 | > 25 | > 25 | – | – | –
CC1=C[C@@H]2/C=C(\C)CCC(=O)[C@@H](O)/C=C/C(=O)[C@]23C(=O)N[C@@H](CC(C)C)[C@@H]3[C@@H]1C | > 25 | > 20 | > 20 | > 20 | > 20 | > 25 | > 25 | > 25 | > 25 | > 25 | > 25 | – | – | –
O=C(O)c1cn(C2CC2)c2cc(N3CCNCC3)c(F)cc2c1=O [CIPROFLOXACIN] | 1.6 (≈ 4.83 µM) | – | – | – | – | 1.6 (≈ 4.83 µM) | 3.1 (≈ 9.36 µM) | 1.6 (≈ 4.83 µM) | 1.6 (≈ 4.83 µM) | 1.6 (≈ 4.83 µM) | 1.6 (≈ 4.83 µM) | – | – | –
CC1=C[C@@H]2/C=C(\C)CC[C@@H](O)C(=O)C[C@@H](S[C@@H]3CCC[C@H](C)OC(=O)Cc4cc(O)cc(O)c4C(=O)C3)C(=O)[C@]23C(=O)N[C@@H](CC(C)C)[C@@H]3[C@@H]1C | 3.1 (≈ 4.28 µM) | 15 | 13 | 10 | 3.9 | – | – | 6.3 (≈ 8.7 µM) | – | 13 (≈ 18 µM) | – | inactive | inactive | Activity [12]: 1.35%; Activity [13]: 4.85%; Activity [14]: Dose-Dependent Effect; Activity [15]: 1.38%; Activity [16]: 1.19%; viability at 1 µM [17]: 94%; Activity [18]: inactive; Activity [19]: 14.9%; Activity [20]: inactive; viability at 9 µM [21]: 27.1%; Activity [22]: 2.91%; Activity [23]: Active; Activity [24]: 56.8%; Activity [26]: 2.87%; Activity [27]: Active; viability at 3 µM [29]: 90.9%; Activity [30]: Dose-Dependent Effect; Activity [31]: 1.71%
CC1=C[C@@H]2/C=C(\C)CC[C@@H](O)[C@@H](O)/C=C/C(=O)[C@]23C(=O)N[C@@H](CC(C)C)[C@@H]3[C@@H]1C | 6.3 (≈ 15.7 µM) | > 20 | > 20 | > 20 | > 20 | – | – | 6.3 (≈ 15.7 µM) | – | – | – | inactive | inactive | Activity [18]: inactive; Activity [32]: inactive; Activity [20]: inactive
C[C@H]1CCC/C=C/C(=O)c2c(O)cc(O)cc2CC(=O)O1 [DEHYDROCURVULARIN] | 13 (≈ 44.8 µM) | 12 | 20 | 7.9 | 4.3 | 25 (≈ 86.1 µM) | 25 (≈ 86.1 µM) | 3.1 (≈ 10.7 µM) | – | 6.3 (≈ 21.7 µM) | – | inactive | inactive | Activity [12]: 2.2%; Activity [13]: 11.1%; Activity [14]: Dose-Dependent Effect; Activity [15]: 2.09%; Activity [16]: 2.11%; viability at 1 µM [17]: 94.2%; Activity [19]: 12.2%; viability at 9 µM [21]: 34.1%; Activity [22]: 1.68%; Activity [23]: Active; Activity [24]: 51.6%; Activity [26]: 5.07%; Activity [27]: Active; viability at 3 µM [29]: 80.8%; Activity [30]: Dose-Dependent Effect; Activity [31]: 1.87%
CC1=C[C@@H]2/C=C(\C)CC[C@@H](O)[C@@H](O)[C@H](O)CC(=O)[C@]23C(=O)N[C@@H](CC(C)C)[C@@H]3[C@@H]1C | > 25 | > 20 | > 20 | > 20 | > 20 | > 25 | > 25 | > 25 | > 25 | > 25 | > 25 | – | – | –
CC1=C[C@@H]2/C=C(\C)CC[C@H](O)[C@H](O)/C=C/C(=O)O[C@]23C(=O)N[C@@H](CC(C)C)[C@@H]3[C@@H]1C [ASPOCHALASIN I] | > 25 | > 20 | > 20 | > 20 | > 20 | > 25 | > 25 | > 25 | > 25 | > 25 | > 25 | – | – | –
CC1=C[C@@H]2/C=C(\C)CC[C@@H](O)C(=O)C[C@@H](S[C@H]3CCC[C@H](C)OC(=O)Cc4cc(O)cc(O)c4C(=O)C3)C(=O)[C@]23C(=O)N[C@@H](CC(C)C)[C@@H]3[C@@H]1C | 3.1 (≈ 4.28 µM) | 11 | 20 | 23 | 8.3 | – | – | 6.3 (≈ 8.7 µM) | – | 13 (≈ 18 µM) | – | inactive | inactive | Activity [12]: 1.4%; Activity [13]: 5.4%; Activity [14]: Dose-Dependent Effect; Activity [15]: 2.16%; Activity [16]: 1.87%; viability at 1 µM [17]: 91%; Activity [18]: inactive; Activity [19]: 19.1%; Activity [20]: inactive; viability at 9 µM [21]: 26%; Activity [22]: 4.07%; Activity [23]: Active; Activity [24]: 53.2%; Activity [26]: 5.46%; Activity [27]: Active; viability at 3 µM [29]: 87%; Activity [30]: Dose-Dependent Effect; Activity [31]: 3.56%
C[C@H]1CC/C=C\CC(=O)c2c(O)cc(O)cc2CC(=O)O1 | > 25 | > 20 | > 20 | > 20 | > 20 | > 25 | > 25 | > 25 | > 25 | > 25 | > 25 | – | – | –
